Among the data in article PMC8533333, “Melatonin Analogues Potently Inhibit MAO-B and Protect PC12 Cells against Oxidative Stress” (Antioxidants, 2021) are viability values, retold here.

The nature of data set [1]: Neuroprotection against 6-OHDA-induced oxidative toxicity in PC12 cells (MTT). The conditions noted are these: rat. As to the method: (§1) Control cells were incubated in an equivalent volume of DMSO to a final concentration of 0.3%. Neuroprotective effects of the tested compounds on the toxicity induced by 6-OHDA or rotenone in PC12 cells were evaluated as described previously with slight modifications. In brief, cells were pre-treated with the tested compounds or rasagiline at the indicated concentrations for 4 h. Next, they were exposed to 6-OHDA (50 μM) or rotenone (1 μM) for 24 h. In another set of experiments, the influence of HO-1 inhibitor, ZnPP, on the neuroprotective effects of the tested compounds against 6-OHDA-induced oxidative damage was investigated as previously reported. Briefly, the cells were pre-treated with the tested compounds for 4 h and then incubated with 0.2 µM of ZnPP for 30 min. Subsequently, 6-OHDA was added at a final concentration of 50 µM and incubated for 24 h.
After the desired treatment, cell viability was determined by MTT assay as described previously. Briefly, MTT was added to the cells at the final concentration of 0.5 mg/mL, which was followed by incubation for 3 h at 37 °C. […] The absorbance of the dissolved solution was measured at 550 nm using a microplate reader (SpectraMax M2^e, Molecular Devices, Sunnyvale, CA, USA). The cell viability was presented as the percentage of the absorbance measured in the vehicle-treated control cells.

The nature of data set [2]: Neuroprotection against rotenone-induced toxicity in PC12 cells (MTT). The conditions noted are these: rat. How it is done: as §1
After the desired treatment, cell viability was determined by MTT assay as described previously. Briefly, MTT was added to the cells at the final concentration of 0.5 mg/mL, which was followed by incubation for 3 h at 37 °C. The supernatants were carefully removed, and then, 300 μL of DMSO was added to each well to dissolve formazan precipitate. The absorbance of the dissolved solution was measured at 550 nm using a microplate reader (SpectraMax M2^e, Molecular Devices, Sunnyvale, CA, USA). The cell viability was presented as the percentage of the absorbance measured in the vehicle-treated control cells.

Structures are written as SMILES.

Take `NCCc1cc(O)c(O)cc1O` [6-OHDA, 6-Hydroxydopamine]: the viability at 24 h, 50 µM in data set [1] stood at 50.9 ± 3.1%. Turning to `C=C(C)[C@H]1Cc2c(ccc3c2O[C@@H]2COc4cc(OC)c(OC)cc4[C@@H]2C3=O)O1` [rotenone, reference compound], the viability at 24 h, 1 μM in data set [2] was 64.4 ± 1.4%.
